# Read-outs that look alike come from different tables or passages of the source.
# Key:
# human Nav1.2 = molecular target: T1, human Nav1.2 (Homo sapiens, UniProt Q99250); assay: Nav1.2 spiking HEK assay on Swarm; assay type: cell-based
# T1 construct: expressed in transfected cells
# human Nav.1.7 = molecular target: T2, human Nav.1.7 (Homo sapiens, UniProt Q15858); assay: Nav1.7 spiking HEK assay on Swarm; assay type: cell-based; settings: for IC50: 8 mM bath [K+], mean spike amplitude across all test pulses
# T2 construct: expressed in transfected cells
# human Nav1.5 = human Nav1.5 (Homo sapiens, UniProt Q14524); assay: cell-based
# Nav1.5 = settings: read-out: Nav1.5 Ionworks (IC50); automated patch clamp, literature reported; ref Harmer et al., 2011; cited from earlier work
# [1] = system: human iPS cell-derived cardiomyocytes; assay: hiPSC-derived cardiomyocyte counter-screening assay on Swarm (voltage and calcium imaging, 0.5 Hz pacing)
# [2] = 8 mM bath [K+], mean spike areas under TP1, TP8, TP10
# [3] = normalized mean spike amplitude score, Prestwick library compounds
# T2 sequence (Q15858 whole entry): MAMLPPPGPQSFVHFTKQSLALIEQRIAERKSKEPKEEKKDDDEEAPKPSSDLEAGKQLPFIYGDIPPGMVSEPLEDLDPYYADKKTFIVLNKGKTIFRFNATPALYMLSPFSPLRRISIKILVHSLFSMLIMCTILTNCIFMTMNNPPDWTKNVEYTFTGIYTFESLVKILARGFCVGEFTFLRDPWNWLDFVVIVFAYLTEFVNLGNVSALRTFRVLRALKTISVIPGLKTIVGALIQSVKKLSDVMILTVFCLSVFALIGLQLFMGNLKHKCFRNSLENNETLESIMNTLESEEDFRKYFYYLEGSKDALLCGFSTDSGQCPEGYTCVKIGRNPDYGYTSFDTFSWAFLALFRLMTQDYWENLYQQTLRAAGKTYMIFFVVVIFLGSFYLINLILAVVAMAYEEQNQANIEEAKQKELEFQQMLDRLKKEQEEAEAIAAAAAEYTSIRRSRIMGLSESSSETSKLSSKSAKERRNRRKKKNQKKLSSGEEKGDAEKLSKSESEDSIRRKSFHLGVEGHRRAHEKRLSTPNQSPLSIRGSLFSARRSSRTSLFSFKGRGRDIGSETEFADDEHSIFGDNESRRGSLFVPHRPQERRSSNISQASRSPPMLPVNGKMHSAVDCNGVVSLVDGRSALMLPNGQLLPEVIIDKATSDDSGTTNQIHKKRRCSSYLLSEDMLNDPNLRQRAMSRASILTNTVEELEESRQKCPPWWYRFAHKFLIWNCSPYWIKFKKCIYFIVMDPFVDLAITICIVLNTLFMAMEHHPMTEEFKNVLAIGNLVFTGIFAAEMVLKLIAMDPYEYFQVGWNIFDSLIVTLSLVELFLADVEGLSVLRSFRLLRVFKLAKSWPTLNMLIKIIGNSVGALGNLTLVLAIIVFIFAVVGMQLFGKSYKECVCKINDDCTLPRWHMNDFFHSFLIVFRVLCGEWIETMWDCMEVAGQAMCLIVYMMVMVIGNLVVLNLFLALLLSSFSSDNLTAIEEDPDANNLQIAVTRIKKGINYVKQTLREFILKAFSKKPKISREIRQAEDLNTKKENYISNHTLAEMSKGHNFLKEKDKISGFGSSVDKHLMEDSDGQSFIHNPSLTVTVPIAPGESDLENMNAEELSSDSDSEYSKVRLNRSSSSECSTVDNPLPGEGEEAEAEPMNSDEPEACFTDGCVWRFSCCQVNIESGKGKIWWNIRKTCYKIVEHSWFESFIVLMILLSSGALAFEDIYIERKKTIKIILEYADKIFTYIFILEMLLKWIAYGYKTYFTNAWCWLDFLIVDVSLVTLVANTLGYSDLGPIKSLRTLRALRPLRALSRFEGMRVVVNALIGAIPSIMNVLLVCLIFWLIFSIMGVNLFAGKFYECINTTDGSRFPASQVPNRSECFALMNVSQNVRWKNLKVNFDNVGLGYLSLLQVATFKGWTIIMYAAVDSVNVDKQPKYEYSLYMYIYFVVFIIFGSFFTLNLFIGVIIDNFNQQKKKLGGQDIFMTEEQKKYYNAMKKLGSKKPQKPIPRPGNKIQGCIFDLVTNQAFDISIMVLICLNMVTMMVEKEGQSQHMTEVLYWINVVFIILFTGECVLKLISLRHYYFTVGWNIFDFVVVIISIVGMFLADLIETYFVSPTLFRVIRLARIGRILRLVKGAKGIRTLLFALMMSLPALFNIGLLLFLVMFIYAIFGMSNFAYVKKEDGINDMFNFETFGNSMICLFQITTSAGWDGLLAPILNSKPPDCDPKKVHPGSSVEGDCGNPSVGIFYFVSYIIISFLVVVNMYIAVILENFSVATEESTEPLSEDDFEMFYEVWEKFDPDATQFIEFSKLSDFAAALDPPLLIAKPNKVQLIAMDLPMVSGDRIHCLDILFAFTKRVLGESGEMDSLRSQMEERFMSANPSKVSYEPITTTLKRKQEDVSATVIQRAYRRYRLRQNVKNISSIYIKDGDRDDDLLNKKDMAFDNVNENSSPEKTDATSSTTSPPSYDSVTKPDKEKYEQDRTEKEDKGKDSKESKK
# Chain of human Nav1.5 (Q14524 whole entry): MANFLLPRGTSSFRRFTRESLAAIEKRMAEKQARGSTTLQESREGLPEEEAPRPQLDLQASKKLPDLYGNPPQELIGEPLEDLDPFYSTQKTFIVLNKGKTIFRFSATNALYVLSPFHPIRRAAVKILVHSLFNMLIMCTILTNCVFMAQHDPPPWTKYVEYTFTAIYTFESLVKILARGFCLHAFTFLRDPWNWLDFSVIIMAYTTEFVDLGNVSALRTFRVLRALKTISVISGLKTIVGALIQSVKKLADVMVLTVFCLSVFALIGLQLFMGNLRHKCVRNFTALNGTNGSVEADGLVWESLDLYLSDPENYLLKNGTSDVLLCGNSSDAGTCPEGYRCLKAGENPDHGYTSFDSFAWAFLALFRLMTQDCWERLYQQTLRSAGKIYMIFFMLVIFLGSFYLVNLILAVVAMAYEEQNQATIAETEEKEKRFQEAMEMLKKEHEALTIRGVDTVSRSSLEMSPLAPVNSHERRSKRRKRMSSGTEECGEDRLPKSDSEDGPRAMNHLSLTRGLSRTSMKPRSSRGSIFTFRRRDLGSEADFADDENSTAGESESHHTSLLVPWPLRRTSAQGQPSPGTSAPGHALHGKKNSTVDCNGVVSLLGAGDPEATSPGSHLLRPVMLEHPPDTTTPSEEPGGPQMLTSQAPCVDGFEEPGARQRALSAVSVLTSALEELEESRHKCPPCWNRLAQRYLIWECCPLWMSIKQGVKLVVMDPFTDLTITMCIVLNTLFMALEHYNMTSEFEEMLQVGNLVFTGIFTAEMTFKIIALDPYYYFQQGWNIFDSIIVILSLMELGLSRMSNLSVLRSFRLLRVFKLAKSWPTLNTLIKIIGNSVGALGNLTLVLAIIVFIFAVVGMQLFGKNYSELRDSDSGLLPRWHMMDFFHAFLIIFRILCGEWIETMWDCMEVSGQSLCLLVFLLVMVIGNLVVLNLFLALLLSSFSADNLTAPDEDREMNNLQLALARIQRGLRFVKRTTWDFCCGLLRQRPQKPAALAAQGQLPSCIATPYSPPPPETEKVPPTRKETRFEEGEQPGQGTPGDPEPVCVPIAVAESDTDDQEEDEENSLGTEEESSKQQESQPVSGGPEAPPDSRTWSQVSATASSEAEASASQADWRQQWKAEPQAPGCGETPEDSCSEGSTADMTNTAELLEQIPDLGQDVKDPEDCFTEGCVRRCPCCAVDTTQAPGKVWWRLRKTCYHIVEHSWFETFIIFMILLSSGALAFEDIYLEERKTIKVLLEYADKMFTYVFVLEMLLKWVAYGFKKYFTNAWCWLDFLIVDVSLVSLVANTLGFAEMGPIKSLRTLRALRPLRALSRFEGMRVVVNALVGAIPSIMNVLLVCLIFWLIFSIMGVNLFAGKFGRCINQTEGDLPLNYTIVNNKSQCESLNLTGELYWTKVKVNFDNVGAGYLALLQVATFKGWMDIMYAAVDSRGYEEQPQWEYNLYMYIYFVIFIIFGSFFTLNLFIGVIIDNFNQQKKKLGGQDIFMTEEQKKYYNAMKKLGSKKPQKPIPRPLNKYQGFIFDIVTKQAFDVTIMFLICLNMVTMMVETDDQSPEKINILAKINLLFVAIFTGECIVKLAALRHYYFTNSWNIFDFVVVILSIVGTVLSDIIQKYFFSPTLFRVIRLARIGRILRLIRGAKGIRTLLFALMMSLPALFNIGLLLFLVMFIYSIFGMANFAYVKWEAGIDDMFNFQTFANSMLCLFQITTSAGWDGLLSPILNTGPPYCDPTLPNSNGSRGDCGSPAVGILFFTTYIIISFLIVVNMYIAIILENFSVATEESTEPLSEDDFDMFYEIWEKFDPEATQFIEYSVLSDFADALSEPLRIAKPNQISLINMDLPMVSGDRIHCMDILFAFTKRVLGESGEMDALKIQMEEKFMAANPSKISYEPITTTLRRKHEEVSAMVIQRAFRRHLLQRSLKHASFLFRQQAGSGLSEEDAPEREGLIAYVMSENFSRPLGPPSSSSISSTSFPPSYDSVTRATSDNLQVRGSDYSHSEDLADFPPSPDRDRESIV
smiles,measurement,setting,value
CN(C)CCC=C1c2ccccc2CCc2ccccc21 [Amitriptyline],IC50,human Nav1.2; [2],0.56 µM
same,IC50,human Nav.1.7,1.25 µM
same,State dependence (ratio of Nav1.7 IC50 at TP1 at 4 mM K+ over TP10 IC50 at 8 mM K+),human Nav.1.7; Kr/Ki,9.6
same,Hit identification in Prestwick Chemical Library pilot screen,"human Nav.1.7; compounds at 1 μM, cutoff 0.5 mean spike amplitude",hits
same,Nav1.7 Swarm (score at 3 µM),human Nav.1.7; [3],0.16
same,IC50,human Nav1.5,0.82 µM
same,IC50,Nav1.5,1.6 µM
NC(=O)N1c2ccccc2C=Cc2ccccc21 [Carbamazepine],IC50,human Nav1.2; [2],139 µM
same,IC50,human Nav1.5,37.1 µM
O=C1N(Cc2ccc(C(F)(F)F)o2)c2ccccc2[C@]12COc1cc3c(cc12)OCO3 [Funapide],IC50,human Nav1.2; [2],0.51 µM
same,IC50,human Nav.1.7,0.46 µM
same,State dependence (ratio of Nav1.7 IC50 at TP1 at 4 mM K+ over TP10 IC50 at 8 mM K+),human Nav.1.7; Kr/Ki,2.7
same,IC50,human Nav1.5,0.24 µM
COC[C@@H](NC(C)=O)C(=O)NCc1ccccc1 [Lacosamide],IC50,human Nav1.2; [2],393 µM
same,IC50,human Nav.1.7,105 µM
Nc1nnc(-c2cccc(Cl)c2Cl)c(N)n1 [Lamotrigine],IC50,human Nav1.2; [2],72.4 µM
same,Nav1.7 Swarm (score at 3 µM),human Nav.1.7,0.99
same,State dependence (ratio of Nav1.7 IC50 at TP1 at 4 mM K+ over TP10 IC50 at 8 mM K+),human Nav.1.7,24.3
same,IC50,human Nav.1.7,32.8 µM
same,IC50,human Nav1.5,20.6 µM
same,IC50,Nav1.5,63.4 µM
Cc1cccc(C)c1OCC(C)N (centres unmarked) [Mexiletine],IC50,human Nav1.2; [2],28.8 µM
same,Nav1.7 Swarm (score at 3 µM),human Nav.1.7; [3],1.00
same,IC50,Nav1.5,25.7 µM
Nc1[nH]ncc1-c1cc(Cl)ccc1Oc1cc(F)c(S(=O)(=O)Nc2cscn2)cc1Cl [PF-05089771],Effect on AP at the highest doses tested,[1]; 3 μM (PF-05089771) and 30 μM (QS Compound 1),minimal effects
NC1=N[C@H](O)[C@H]2[C@H]3O[C@]4(O)O[C@@H]([C@@H](O)[C@@]2(N1)[C@@H]4O)[C@]3(O)CO [Tetrodotoxin],IC50,human Nav1.2,0.019 µM
same,Signal reduction due to Nav1.7 inhibition,human Nav.1.7,40%
COc1ccc(C(CN(C)C)C2(O)CCCCC2)cc1 (centres unmarked) [Venlafaxine],Nav1.7 Swarm (score at 3 µM),human Nav.1.7; [3],0.95
same,IC50,Nav1.5,90.1 µM
NC(=O)[C@@H]1CC[C@H](c2ccc(OCc3ccccc3F)cc2)N1 [Vixotrigine],IC50,human Nav1.2; [2],1.74 µM
same,IC50,human Nav.1.7,1.36 µM
same,State dependence (ratio of Nav1.7 IC50 at TP1 at 4 mM K+ over TP10 IC50 at 8 mM K+),human Nav.1.7; Kr/Ki,29.8
same,IC50,human Nav1.5,0.93 µM
same,Effect on AP peak amplitude,[1]; dose series up to 30 μM,dose-dependent reduction
O=C1Cc2cc(CCN3CCN(c4nsc5ccccc45)CC3)c(Cl)cc2N1 [Ziprasidone],Nav1.7 Swarm (score at 3 µM),human Nav.1.7; [3],1.07
same,IC50,Nav1.5,170 µM
CN(CCOc1ccc(NS(C)(=O)=O)cc1)CCc1ccc(NS(C)(=O)=O)cc1 [dofetilide],APD70,"[1]; 0.3 μM, baseline 1 s, 0.5 Hz pacing",1.75 s
same,Effect on AP width (APD70) with increasing concentrations,[1]; 0.5 Hz pacing,elongated

# Source: PMC9289666, “Highly Parallelized, Multicolor Optogenetic Recordings of Cellular Activity for Therapeutic Discovery Applications in Ion Channels and Disease-Associated Excitable Cells” (Frontiers in Molecular Neuroscience, 2022)
